{
  "source": "patent US11690800B2",
  "about": "“Non-irritating, non-blurring, photostable ophthalmic sunscreen composition” (A. EBBIE SOROUDI, M.D., M.S., A PROFESSIONAL MEDICAL …, priority 2014, dated 2023)",
  "origin": "cited, not measured here",
  "key": {"[1]": {"conditions": "formulated into a dermatologic sunscreen"}, "[2]": {"conditions": "oil phase and water phase of a sunscreen"}},
  "data": [
    {"compound": "CC(C)(C)CC(C)(C)c1cc(Cc2cc(C(C)(C)CC(C)(C)C)cc(-n3nc4ccccc4n3)c2O)c(O)c(-n2nc3ccccc3n2)c1", "note": "[Bisoctrizole, 2,2′-methanediylbis[6-(2H-benzotriazol-2-yl)-4-(2,4,4-trimethylpentan-2-yl)phenol]]", "values": [
      {"measurement": "skin penetration", "setting": "[1]", "result": "minimal skin penetration"},
      {"measurement": "dissolution in oil or water phase", "setting": "[2]", "result": "dissolves poorly in both"}
    ]}
  ]
}
